Measurements published in patent US9586907B2, “Isothiocyanate compounds, pharmaceutical compositions, and uses thereof” (priority 2006, dated 2017).
Values after ≈ are worked out from the molar mass of the structure shown. Marks after values point to notes of the source that are not given here.

How the values were obtained:
M. intracellularie = test: MIC, M. intracellularie; assay type: cell-based; details: M. intracellularie
M. avium = test: MIC, M. avium; assay type: cell-based; details: M. avium
M. scrofulaceum = test: MIC, M. scrofulaceum; assay type: cell-based; details: M. scrofulaceum
M. cansassi = test: MIC, M. cansassi; assay type: cell-based; details: M. cansassi
M. fortuitum = test: MIC, M. fortuitum; assay type: cell-based; details: M. fortuitum
M. tuberculosis W4 = test: MIC, M. tuberculosis W4; assay type: cell-based
Protocol: (§1) Next, several of the bifunctional ITC compounds were tested for their ability to inhibit the growth of some clinical isolates of Mycobacteria, the results of which are summarized in Table 3 below.

M. tuberculosis 210 = test: MIC, M. tuberculosis 210; assay type: cell-based
Protocol: as §1

M. tuberculosis W = test: MIC, M. tuberculosis W; assay type: cell-based
Protocol: as §1

M. tuberculosis H37Rv = test: MIC, M. tuberculosis H37Rv; assay type: cell-based
Protocol: as §1

M. tuberculosis CDC1551 = test: MIC, M. tuberculosis CDC1551; assay type: cell-based
Protocol: as §1

M. tuberculosis P = test: MIC, M. tuberculosis P; assay type: cell-based
Protocol: as §1

M. tuberculosis AB = test: MIC, M. tuberculosis AB; assay type: cell-based
Protocol: as §1

M. bovis BCG = test: microbe, parasite or virus in culture; assay type: cell-based
[1] = tested on: human acute monocytic leukemia cells (THP1 cells); test: Growth of THP1 cells, MTT metabolic assay; assay type: cell-based; details: highest dosage of 32 μg/mL, 24 hours
Protocol: THP1 cells were either mock-treated (DMSO vehicle alone), or treated with increasing doses of new compounds 37 and 45, from 0 to 32 μg/mL. Cells were incubated in the presence of compound for 24 hours, and subsequently were assayed for total cell viability using an MTT, metabolic assay.

[2] = In vivo tolerance in mice; details: highest dose, 50 mg/kg
[3] = tested on: Mycobacterium tuberculosis H37Rv strain; test: In vitro infection model, bacterial growth inhibition in infected macrophages; assay type: cell-based; details: M. tuberculosis H37Rv; up to 1 μg/mL; Rifampicin control
Excerpt: Rifampicin was used as a control for this experiment.

virus (92TH594) = test: Viral proliferation in PBMC, p24 viral antigen; assay type: cell-based; details: for P24 values: PBMC
Mycobacteria = assay type: cell-based; details: Table 3
[4] = tested on: human peritoneal macrophages infected with Mycobacterium tuberculosis H37Rv strain; test: In vitro infection model, cytotoxicity; details: up to 1 μg/mL; Rifampicin control
Candida albicans 90028 = test: Anti-fungal MIC, Candida albicans 90028; details: Candida albicans 90028
Candida albicans 90030 = test: Anti-fungal MIC, Candida albicans 90030; details: Candida albicans 90030
Candida dlabrata 250^mdr = test: Anti-fungal MIC, Candida dlabrata 250^mdr; details: Candida dlabrata 250^mdr; MIC determined at 48 hours of growth
[5] = tested on: Candida albicans 5108^mdr; test: Anti-fungal MIC, Candida albicans 5108^mdr; details: Candida albicans 5108^mdr
[6] = tested on: Candida parapsilosis 22019; test: Anti-fungal MIC, Candida parapsilosis 22019; details: Candida parapsilosis 22019
[7] = tested on: Aspergillus fumigatus Rit 1; test: Anti-fungal MIC, Aspergillus fumigatus Rit 1; details: Aspergillus fumigatus Rit 1
[8] = tested on: Aspergillus fumigatus Rit 11; test: Anti-fungal MIC, Aspergillus fumigatus Rit 11; details: Aspergillus fumigatus Rit 11
[9] = tested on: Aspergillus fumigatus Rit 21; test: Anti-fungal MIC, Aspergillus fumigatus Rit 21; details: Aspergillus fumigatus Rit 21
[10] = tested on: Cryptococcus neoformans CNH99; test: Anti-fungal MIC, Cryptococcus neoformans CNH99; details: Cryptococcus neoformans CNH99

OCCCCCCCCN=C=S [Compound 45, HO—(CH2)8—N═C═S]
MIC (M. intracellularie): 4 µg/mL (≈ 21.4 µM)
MIC (M. avium): 4 µg/mL (≈ 21.4 µM)
MIC (M. scrofulaceum): 8 µg/mL (≈ 42.7 µM)
MIC (M. cansassi): 1 µg/mL (≈ 5.34 µM)
MIC (M. fortuitum): 4 µg/mL (≈ 21.4 µM)
MIC (M. tuberculosis W4): 1 µg/mL (≈ 5.34 µM)
MIC (M. tuberculosis 210): 1 µg/mL (≈ 5.34 µM)
MIC (M. tuberculosis W): 1 µg/mL (≈ 5.34 µM)
MIC (M. tuberculosis H37Rv): 1 µg/mL (≈ 5.34 µM)
MIC (M. tuberculosis CDC1551): 2 µg/mL (≈ 10.7 µM)
MIC (M. tuberculosis P): 2 µg/mL (≈ 10.7 µM)
MIC (M. tuberculosis AB): 2 µg/mL (≈ 10.7 µM)
MIC (M. bovis BCG): 0.5 µg/mL (≈ 2.67 µM)
effect on growth of THP1 cells [1]: not able to affect the growth of THP1 cells
toxicity in treated mice [2]: no toxicity was observed
growth inhibitory activity in infected macrophages [3]: comparabale with the inhibition observed for Rifampicin
difference in antiviral activity with and without preincubation prior to viral infection (virus (92TH594); Tables 5 and 6 compared): no detectable difference
P24 values (virus (92TH594); compound 2.5 μg/ml, added to the cells after viral infection): 975 pg/mL
P24 values (virus (92TH594); compound 2.5 μg/ml, added to the cells before viral infection): 960 pg/mL
P24 values (virus (92TH594); compound 10 μg/ml, added to the cells after viral infection): 7 pg/mL
P24 values (virus (92TH594); compound 10 μg/ml, added to the cells before viral infection): 6 pg/mL
activity against Mycobacteria (in words) (Mycobacteria): highest activity
Anti-Fungal Activity (MIC) (Candida crusei 6258^mdr): 4 µg/mL
cytotoxicity in infected macrophages [4]: low cytotoxicity, similar to Rifampicin
Anti-Fungal Activity (MIC) (Candida albicans 90028): 8 µg/mL
Anti-Fungal Activity (MIC) (Candida albicans 90030): 4 µg/mL
Anti-Fungal Activity (MIC) (Candida dlabrata 250^mdr): 4** μg/mL
Anti-Fungal Activity (MIC) [5]: 4 µg/mL
Anti-Fungal Activity (MIC) [6]: 8 µg/mL
Anti-Fungal Activity (MIC) [7]: 8 µg/mL
Anti-Fungal Activity (MIC) [8]: 8 µg/mL
Anti-Fungal Activity (MIC) [9]: 8 µg/mL
Anti-Fungal Activity (MIC) [10]: <1 µg/mL
